Measured values reported in patent publication US11325896B2, “Antagonists of the muscarinic acetylcholine receptor M4” (Vanderbilt University, priority 2017, dated 2022).

Legend:
[1] = target: T1, human mAChR M4 (Homo sapiens, UniProt P08173); experiment: mAChR M4 cell-based functional assay (calcium flux, decrease of EC80 acetylcholine response); details: for remaining activity at 30 µM: % ACh maximum at 30 μM, human M4, read-out: Emin; for IC50: M4/Gqi5/CHO-K1 cells, decrease of response to EC80 acetylcholine
T1 construct: expressed in transfected cells; host or cells: CHO-K1 (ATCC), stably co-expressing the chimeric G protein Gqi5
T1 sequence (P08173 1-479): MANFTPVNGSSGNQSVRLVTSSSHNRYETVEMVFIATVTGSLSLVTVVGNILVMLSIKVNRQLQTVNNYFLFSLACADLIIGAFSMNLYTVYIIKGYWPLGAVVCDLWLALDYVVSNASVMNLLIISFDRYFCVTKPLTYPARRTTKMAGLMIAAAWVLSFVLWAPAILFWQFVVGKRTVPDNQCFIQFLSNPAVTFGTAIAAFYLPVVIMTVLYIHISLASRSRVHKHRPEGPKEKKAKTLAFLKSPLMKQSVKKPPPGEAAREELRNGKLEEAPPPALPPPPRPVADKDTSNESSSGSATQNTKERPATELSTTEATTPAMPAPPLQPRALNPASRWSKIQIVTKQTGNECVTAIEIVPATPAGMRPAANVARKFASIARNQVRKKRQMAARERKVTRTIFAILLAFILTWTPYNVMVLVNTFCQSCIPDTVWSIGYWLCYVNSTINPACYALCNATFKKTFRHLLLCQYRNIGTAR
Procedure: Human or rat M4 cDNA, along with the chimeric G protein Gqi5, were transfected into Chinese hamster ovary (CHO-K1) cells purchased from the American Type Culture Collection using Lipofectamine2000. M4/Gqi5/CHO cells were grown in Ham's F-12 medium containing 10% heat-inactivated fetal bovine serum (FBS), 20 mM HEPES, 500 μg/mL G418 sulfate, and 200 μg/mL Hygromycin B.
For high throughput measurement of agonist-evoked increases in intracellular calcium, CHO-K1 cells stably expressing muscarinic receptors were plated in growth medium lacking G418 and hygromycin at 15,000 cells/20 μL/well in Greiner 384-well black-walled, tissue culture (TC)-treated, clear-bottom plates (VWR). Cells were incubated overnight at 37° C. and 5% CO2. The next day, cells were washed using an ELX 405 (BioTek) with assay buffer: the final volume was then aspirated to 20 μL. Next, 20 μL of a 2.3 μM stock of Fluo-4/acetoxymethyl ester (Invitrogen, Carlsbad, Calif.), prepared as a 2.3 mM stock in DMSO and mixed in a 1:1 ratio with 10% (w/v) Pluronic F-127 and diluted in assay buffer, was added to the wells and the cell plates were incubated for 50 min at 37° C. and 5% CO2. Dye was removed by washing with the ELX 405 and the final volume was aspirated to 20 μL. Compound master plates were formatted in a 10 point concentration-response curve (CRC) format (1:3 dilutions) in 100% DMSO with a starting concentration of 10 or 1 mM using a BRAVO liquid handler (Agilent). Test compound CRCs were then transferred to daughter plates (240 nL) using the Echo acoustic plate reformatter (Labcyte, Sunnyvale, Calif.) and then diluted into assay buffer (40 μL) to a 2× stock using a Thermo Fisher Combi (Thermo Fisher Scientific, Waltham, Mass.).
Calcium flux was measured using the Functional Drug Screening System (FDSS) 6000 or 7000 (Hamamatsu Corporation, Tokyo, Japan) as an increase in the fluorescent static ratio. Compounds were applied to cells (20 μL, 2×) using the automated system of the FDSS at 2 seconds into the protocol and the data were collected at 1 Hz. At 143 s, 10 μL of an EC20 concentration of the muscarinic receptor agonist acetylcholine was added (5×), followed by the addition of 12 μL of an EC80 concentration of acetylcholine at the 268 s time point (5×). Agonist activity was analyzed as a concentration-dependent increase in calcium mobilization upon compound addition. Positive allosteric modulator activity was analyzed as a concentration-dependent increase in the EC20 acetylcholine response. Antagonist activity was analyzed as a concentration-dependent decrease in the EC80 acetylcholine response; for the purposes of the tables herein, an IC50 (inhibitory concentration 50) was calculated as a concentration-dependent decrease of the response elicited by an EC80 concentration of acetylcholine. Concentration-response curves were generated using a four-parameter logistical equation in XLFit curve fitting software (IDBS, Bridgewater, N.J.) for Excel (Microsoft, Redmond, Wash.) or Prism (GraphPad Software, Inc., San Diego, Calif.) or the Dotmatics software platform (Dotmatics, Bishop's Stortford, UK).
Compounds were synthesized as described above. Activity (IC50 and Emin) was determined in the mAChR M4 cell-based functional assay as described above and the data are shown in Table 4. The compound numbers correspond to those used in Examples 1-4 and Tables 1-3.

[2] = system: haloperidol-induced catalepsy; experiment: haloperidol-induced catalepsy in mice; type: in vivo
From the text: Furthermore, haloperidol-induced catalepsy, a model of parkinsonian motor disability, is reduced in M4 knockout mice as compared to wild-type controls. […] The reversal by scopolamine was uncommonly robust and more pronounced than we observe with agents targeting a number of other targets being evaluated for potential antiparkinsonian effects, including metabotropic glutamate (mGlu) receptors mGlu4 or mGlu5, A2A adenosine receptors, and NMDA receptors. […] Taken together with the extensive studies of M4 modulation of basal ganglia and motor function, these studies provide compelling evidence that M4 is the dominant mAChR subtype involved in the antiparkinsonian effects of non-selective mAChR antagonists and provide support for discovery and development of selective M4 antagonists for treatment of neurodegenerative disease such as PD, dystonia, tardive dyskinesia and other movement disorders.

[3] = system: M4 knockout mice; details: not the other four mAChR subtypes; cited from earlier work

remaining activity at 30 µM [1] [%] | IC50 [1] [µM] | SMILES | reduction of catalepsy induced by haloperidol ([2]; M4 KO mice) | reversal of catalepsy induced by haloperidol ([2]; WT mice) | locomotor-activating effects [3]
36.4 | 10 | Cc1nn(C)cc1-c1ccc(OCC2CC3(C2)CN(Cc2ccccc2)C3)nn1 [Compound 24, 2-benzyl-6-(((6-(1,3-dimethyl-1H-pyrazol-4-yl)pyridazin-3-yl)oxy)methyl)-2-azaspiro[3.3]heptane] | – | – | –
16.5 | 4.2 | Cc1cccnc1CN1CC2(CC(COc3ccc(-c4cn(C)nc4C)nn3)C2)C1 [Compound 25, 6-(((6-(1,3-dimethyl-1H-pyrazol-4-yl)pyridazin-3-yl)oxy)methyl)-2-((3-methylpyridin-2-yl)methyl)-2-azaspiro[3.3]heptane] | – | – | –
– | – | CN1[C@@H]2C[C@@H](OC(=O)[C@H](CO)c3ccccc3)C[C@H]1[C@@H]1O[C@@H]12 [scopolamine] | ineffective | completely reversed | dramatically reduced
